# Legend:
# MMP-2 = assay: Substrate phage display with NGS: relative probability (RP) of P3-P1' tetramer clusters; format: biochemical, human; conditions: for relative probability (RP) of matching tetramer: P3-P1' tetramer matching the MS detected MMP2 cleavage sequence, RP_above_4.5; for normalized RP - MMP2: normalized RP of matching tetramer; for avg_RP: MMP2 - no binning
# MMP-9 = assay: as above; format: biochemical, human; conditions: for normalized RP - MMP9: normalized RP of matching tetramer
# [1] = RP of the P3-P1' tetramer cluster contained in the hexamer, 200 nM MMP-2, 2 h, 37°C, two rounds of selection
# [2] = MMP9, RP of the P3-P1' tetramer contained in the hexamer substrate (substrate phage display, NGS)
# [3] = MMP2, RP of matching P3-P1' tetramer, common set of MMP2-9 selectome, RP above KL threshold
# [4] = RP of matching tetramer, common MMP2-9 selectome
# [5] = MMP9, RP of matching P3-P1' tetramer, common set of MMP2-9 selectome
# [6] = MMP9, RP of the P3-P1' tetramer matching the MS detected cleavage, RP above 4.7, substrate phage display with NGS
# [7] = RP of matching tetramer, common MMP2-9 selectome, RP above KL threshold
# [8] = RP of matching tetramer, unique part of MMP2 selectome, RP above KL threshold
# [9] = RP of matching tetramer, unique part of MMP2 selectome
# [10] = RP of the P3-P1' tetramer, MMP2 substrate phage display/NGS, tetramers of physiologic MEROPS substrates common to MMP2 and MMP9
# [11] = RP of the P3-P1' tetramer, MMP9 substrate phage display/NGS, tetramers of physiologic MEROPS substrates common to MMP2 and MMP9
# [12] = RP according to MMP2, P3-P1' tetramer of unique physiologic MMP2 substrates from MEROPS
substance,measurement,setting,value
DSPQNL,relative probability (RP),MMP-2; [1],32.7851
same,relative probability (RP),MMP-9; [2],46.8593
VSALSS,relative probability (RP),MMP-2; [1],32.3417
same,relative probability (RP),MMP-9; [2],28.865
LSWL,relative probability (RP) (acc.to MMP2),MMP-2; [3],25.56
same,relative probability (RP) of matching tetramer,MMP-2,25.56
same,relative probability (RP) (acc.to MMP2),MMP-2; [4],25.56
same,relative probability (RP) (acc.to MMP9),MMP-9; [5],20.21
same,relative probability (RP),MMP-9; [6],20.21
same,relative probability (RP) (acc.to MMP9),MMP-9; [7],20.21
LFGL,relative probability (RP) (acc.to MMP2),MMP-2; [3],12.87
same,relative probability (RP) of matching tetramer,MMP-2,12.87
same,relative probability (RP) (acc.to MMP2),MMP-2; [4],12.87
same,relative probability (RP) (acc.to MMP9),MMP-9; [5],14.17
same,relative probability (RP),MMP-9; [6],14.17
same,relative probability (RP) (acc.to MMP9),MMP-9; [7],14.17
SRPAEF,relative probability (RP),MMP-2; [1],19.4662
same,relative probability (RP),MMP-9; [2],11.7405
VGGL,relative probability (RP) (acc.to MMP2),MMP-2; [3],26.45
same,relative probability (RP) of matching tetramer,MMP-2,26.45
same,relative probability (RP) (acc.to MMP2),MMP-2; [4],26.45
same,relative probability (RP) (acc.to MMP9),MMP-9; [5],9.44
same,relative probability (RP),MMP-9; [6],9.44
same,relative probability (RP) (acc.to MMP9),MMP-9; [7],9.44
NVARPM,relative probability (RP),MMP-2; [1],21.8664
same,relative probability (RP),MMP-9; [2],34.8794
WPSPFR,relative probability (RP),MMP-2; [1],30.9274
same,relative probability (RP),MMP-9; [2],37.3217
PRGFSH,relative probability (RP),MMP-2; [1],32.9171
same,relative probability (RP),MMP-9; [2],42.5506
IGGL [P3-P1' tetramer cluster],relative probability (RP) of matching tetramer,MMP-2,26.48
same,relative probability (RP) (acc.to MMP2),MMP-2; [8],26.48
same,normalized RP - MMP2,MMP-2; unique part of MMP2 selectome,0.7251
same,relative probability (RP) (acc.to MMP9),MMP-9; [9],4.4
same,normalized RP - MMP9,MMP-9; unique part of MMP2 selectome,0.084
same,relative probability (RP),MMP-9; tetramer projected onto MMP-9 cleavage sites determined by Prudova et al. (2010),4.4
PVSL,relative probability (RP) (acc.to MMP2),MMP-2; [10],32.5
same,relative probability (RP) (acc.to MMP9),MMP-9; [11],42.36
AMFL,corresponding MMP2 relative probability (RP),"MMP-2; MMP9 tetramers from unique substrates, RP of same tetramer for MMP2",15.1166
same,MMP9 relative probability (RP),"MMP-9; MMP9 tetramers from unique substrates, unrounded values",1.089
PKKL,relative probability (RP) (acc.to MMP2),MMP-2; [10],8.1
same,relative probability (RP) (acc.to MMP9),MMP-9; [11],23.95
NPQNIR,relative probability (RP),MMP-2; [1],27.128
same,relative probability (RP),MMP-9; [2],44.0295
PHPRLL,relative probability (RP),MMP-2; [1],23.2612
same,relative probability (RP),MMP-9; [2],38.6219
PGPIGI,relative probability (RP),MMP-2; [1],31.281
same,relative probability (RP),MMP-9; [2],46.0584
GSSY,relative probability (RP) (acc.to MMP2),MMP-2; [10],0.73
same,relative probability (RP) (acc.to MMP9),MMP-9; [11],0.37
PRGVKG,relative probability (RP),MMP-2; [1],29.4971
same,relative probability (RP),MMP-9; [2],42.1832
GEPRGQ,relative probability (RP),MMP-2; [1],29.4864
same,relative probability (RP),MMP-9; [2],42.1179
PAQLHV,relative probability (RP),MMP-2; [1],32.8467
same,relative probability (RP),MMP-9; [2],43.1805
PTGS,relative probability (RP) (acc.to MMP2),MMP-2; [10],0.04
same,relative probability (RP) (acc.to MMP9),MMP-9; [11],0.05
MRPVGH,relative probability (RP),MMP-2; [1],23.4937
same,relative probability (RP),MMP-9; [2],20.8057
IDNL,relative probability (RP) of matching tetramer,MMP-2,4.88
same,relative probability (RP) (acc.to MMP2),MMP-2; [8],4.88
same,normalized RP - MMP2,MMP-2; unique part of MMP2 selectome,0.1336
same,relative probability (RP) (acc.to MMP9),MMP-9; [9],0.5
same,normalized RP - MMP9,MMP-9; unique part of MMP2 selectome,0.009546
PTGL,avg_RP,"MMP-2; average relative probability of the tetramer, redundant tetramers averaged out",33.1098
same,relative probability (RP) (acc.to MMP2),MMP-2; [10],33.11
same,relative probability (RP) (acc.to MMP9),MMP-9; [11],39.89
LANM,avg_RP,"MMP-2; average relative probability (RP) of the P3-P1' tetramer, redundant tetramers have been averaged out",31.4114
same,relative probability (RP) (acc.to MMP2),MMP-2; [10],31.41
same,relative probability (RP) (acc.to MMP9),MMP-9; [11],5.47
MGSL,MMP2 relative probability (RP),"MMP-2; MMP2 tetramers from unique substrates, unrounded values",28.8961
same,Relative probability (RP) rank,MMP-2; [12],452
same,relative probability (RP),MMP-2; [12],28.9
same,corresponding MMP9 relative probability (RP),"MMP-9; MMP2 tetramers from unique substrates, RP of same tetramer for MMP9",3.398
GLSL,relative probability (RP) (acc.to MMP2),MMP-2; [10],0.18
same,relative probability (RP) (acc.to MMP9),MMP-9; [11],4.42
PSSV,relative probability (RP) (acc.to MMP2),MMP-2; [10],20.49
same,relative probability (RP) (acc.to MMP9),MMP-9; [11],25.16
TLGL,relative probability (RP) (acc.to MMP2),MMP-2; [3],6
same,relative probability (RP) of matching tetramer,MMP-2,6
same,relative probability (RP) (acc.to MMP2),MMP-2; [4],6
same,relative probability (RP) (acc.to MMP9),MMP-9; [5],9.79
same,relative probability (RP),MMP-9; [6],9.79
same,relative probability (RP) (acc.to MMP9),MMP-9; [7],9.79
LAWL,avg_RP,"MMP-2; average relative probability of the P3-P1' tetramer, redundant tetramers have been averaged out",22.0358
same,relative probability (RP) (acc.to MMP2),MMP-2; [3],22.04
same,relative probability (RP) of matching tetramer,MMP-2,22.04
same,relative probability (RP) (acc.to MMP2),MMP-2; [4],22.04
same,relative probability (RP) (acc.to MMP9),MMP-9; [5],19.78
same,relative probability (RP),MMP-9; [6],19.78
same,relative probability (RP) (acc.to MMP9),MMP-9; [7],19.78
KSPQSY,relative probability (RP),MMP-2; [1],26.1515
same,relative probability (RP),MMP-9; [2],42.416

# Source: publication PMC7932537, “Quantitative profiling of protease specificity” (PLoS Computational Biology, 2021)
